Literature values in patent US10842882B2, “Amatoxin-antibody conjugates” ([…] GMBH, priority 2015, dated 2020).

Target: RNA-polymerase II (Homo sapiens, UniProt P24928)
Details: amanitin/RNA-polymerase II complex, background statement

## amanitin
  Kd: 3 nM
